# US12545890B2, “Compositions and methods for derivation of trophoblast stem cells” (North Carolina State University, priority 2019, dated 2026)
# Tests used:
# [1] = system: H1 and H9 hESCs; assay: differentiation of day-6 CTB-like cells to STB, analysed at day 14; conditions: for formation of multinucleate STB expressing STB markers: agonist present during initial 6-day treatment, 14-day treatment; for formation of large multinucleated STB, compared among S1PR agonists: compared to the S1PR1 agonist
# Source text: (§1) Differentiation of hPSCs (6 days protocol). […] The medium was replaced every day.
# [2] = system: H1 and H9 hESCs; assay: 6-day differentiation of hESCs to CTB-like cells in chemically defined medium, marker expression by qPCR and immunofluorescence; conditions: for immunofluorescence expression of trophoblast/CTB markers in CTB-like cells: day 6, S1P or replacing agonist with BMP4 and SB431542 in E7 medium
# [3] = system: H1 and H9 hESCs; assay: differentiation of day-6 CTB-like cells to EVTs, analysed at day 12; conditions: for formation of EVTs, expression of EVT markers HLA-G and VE-Cadherin: agonist present during initial 6-day treatment, 12-day treatment; for formation of mesenchymal EVTs, compared among S1PR agonists: relative to the S1PR2 agonist
# Source text: as §1
# [4] = system: H9 and H1 hESCs; assay: 3-day differentiation of hESCs, quantitative image analysis of nuclear CDX2; assay type: cell-based, human; conditions: day 3; BMP4 and SB431542 in E7 medium with S1PR3 agonist
# Protocol: Differentiation of hPSCs to hPSC-TS^CDX2 and hPSC-TS cells. […] The medium was replaced every day. […] Alternatively, hPSCs after 2 or 3 days of differentiation were directly passaged into TSCM.
# Immunofluorescence analysis.
# Confocal image analysis. Image analysis was conducted using an image processing algorithm created in MATLAB. First, the DAPI stain was isolated, binarized, and processed to accurately represent the number of cells in each image. The primary-antibody stain of interest was isolated and processed in the same manner. Only primary-antibody pixels that overlap DAPI pixels were considered for analysis, and the average intensities of those pixels were measured and correlated to the nearest nuclei. This was performed for one control image and multiple experimental images. Each cell in the experimental images was considered positively stained if the average intensity of that cell was greater than the average intensity of all of the cells in the control image. Statistical analysis was done using a two-tailed t-test evaluating percent positive cells from different treatment periods.
# [5] = day 6, qualitative immunofluorescence
Structure (SMILES),formation of multinucleate STB expressing STB markers [1],"formation of large multinucleated STB, compared among S1PR agonists [1]","intensity of CDX2 and P63 expression, compared among S1PR agonists [2, 5]",immunofluorescence expression of trophoblast/CTB markers in CTB-like cells [2],"formation of EVTs, expression of EVT markers HLA-G and VE-Cadherin [3]",fraction of CDX2+ cells [4],"intensity of CDX2 and P63 expression, compared among S1PR agonists ([2]; day 6, qualitative immunofluorescence, listed as S1PR3 agonist)","formation of mesenchymal EVTs, compared among S1PR agonists [3]","differentiation to STB in the absence of S1P ([1]; S1P removed during initial 6-day treatment, syncytin and KRT7 staining)","gene expression of CTB markers CDX2 and ELF5 ([2]; H1 and H9 hESCs, 6 days in E7 medium supplemented with S1P, with BMP4 and SB431542, compared to hESCs)","gene expression of neural and mesodermal markers ([2]; H1 and H9 hESCs, after 6 days in E7 medium supplemented with S1P, with BMP4 and SB431542)","gene expression after 6 days of differentiation upon removal of S1P ([2]; H9 and H1 hESCs, compared to 6-day treatment in the presence of S1P)","formation of EVTs upon removal of S1P ([3]; S1P removed during hESC differentiation to CTB-like cells, identical differentiation conditions)","nuclear P63 expression, compared among S1PR agonists [2, 5]"
Cc1cc(C(=O)Cn2cc(C#N)ccc2=O)c(C)n1Cc1ccccc1 [CYM5520],formation of multinucleate STB expressing KRT7 and hCG,more pronounced,"lower expression of CDX2, strong cytoplasmic expression of P63, and high heterogeneity in staining","Expression of CDX2, GATA3, P63, and TEAD4 was observed",expression of the EVT markers HLA-G and VE-Cadherin,,,,,,,,,
O=C(c1cc(C2CC2)on1)N(C1CCCCC1)C1CCCCC1 [CYM5541],formation of multinucleate STB expressing KRT7 and hCG,more pronounced,higher,"Expression of CDX2, GATA3, P63, and TEAD4 was observed",expression of the EVT markers HLA-G and VE-Cadherin,nearly all cells are CDX2^+,high CDX2 expression,enhanced formation of mesenchymal EVTs,,,,,,
"CCCCCCCCCCCCC/C=C/[C@@H](O)[C@@H](N)COP(=O)(O)O [S1P, sphingosine-1 phosphate]",formation of KRT7^+ multinucleate cells expressing the STB markers hCG and syncytin,,,"confirmed expression of the pan-trophoblast marker KRT7, and CTB markers P63 and GATA3",expression of KRT7 and the EVT markers VE-Cadherin and HLA-G,,,,did not occur,upregulation of the CTB markers CDX2 and ELF5 was observed,no significant changes in markers associated with neural or mesodermal differentiation,downregulation of the CTB marker CDX2 and upregulation of transcripts of neural and mesoderm markers,abolished formation of EVTs,
"CCCCCCCCCCCCCCC[C@@H](O)[C@@H](N)COP(=O)(O)O [dhS1P, D-erythro-dihydrospingosine-1-phosphate]",STB expressing KRT7 and hCG,,,"CTB-like cells showed expression of CDX2, GATA3, P63, and TEAD4",EVT expressing HLA-G and VE-Cadherin were obtained,,,,,,,,,
CCOc1ccc(-c2nc(-c3cccc4c3CCC4NCCO)no2)cc1OCC.Cl (stereo not drawn) [CYM5442 hydrochloride],formation of multinucleate STB expressing KRT7 and hCG,,higher,"Expression of CDX2, GATA3, P63, and TEAD4 was observed",expression of the EVT markers HLA-G and VE-Cadherin,,,enhanced formation of mesenchymal EVTs,,,,,,strongest
